Series [1] concerns fatty liver induced by carbon tetrachloride. The series is described as follows: Therapeutic Effect on Fatty Liver (carbon tetrachloride). Conditions: 10 days; for Degree of fatty liver (histopathological examination): one symbol per animal. Format: in vivo, rats (SD strain). The method, then: Methods: […] The treated animals were left for 3 days after the last administration to maximize the manifestation of fatty liver. […] It was orally given everyday for 10 days at the dose of 50 or 250 mg/kg. On the 11th day, the animals were sacrificed. The therapeutic effect was evaluated by determining the content of liquid in the liver (triglyceride and total lipid) and examining the histopathological changes. Triglyceride and total lipid were determined colorimetrically by chromotropic acid method and Bragdon's oxidation method, respectively. Indices for the histopathological change is as follows: […]

Series [2] relates to acute liver damage induced by allyl alcohol. The experiment in a line: Protective Effect on Acute Liver Damage associated with Periportal Necrosis (allyl alcohol), BSP test. In kind it is in vivo, mouse (dd-strain). To be noted: 100 mg/kg oral, 6 h before allyl alcohol (0.075 mg/kg oral); 24 h. The method, then: The compund of this invention or anethol trithion was orally administered to the male mouse (4 week-old, dd-strain) at the dose of 100 mg/kg. Six hours after it, allyl alcohol was orally administered at the dose of 0.075 mg/kg. Twenty four hours after it, the animals were sacrificed to collect blood samples.

The nature of another series: acute oral toxicity. Conditions: mouse, in vivo, male mice. From the text: Further, these compounds have no detrimental effects on test animals administered therewith, so far as the doses thereof are within an ordinary administration range.
Series [3] relates to glucose metabolism. The series is described as follows: Effect on glucose metabolism. In kind it is in vivo, mice. To be noted: 250 mg/kg oral, 6 h before glucose 4.0 g/kg. As for the experimental part: The test compounds dissolved in olive oil and administered orally at the dose of 250 mg/kg to the mice. After 6 hours, 4.0 g/kg of glucose was orally administered. The same amount of glucose was given to the control animals. 0.02 ml of blood was taken from caudal vein of the mice at 30, 60, 90 and 120 min. after glucose administration. Blood sugar was measured by the procedure of Somogyi-Nelson. Number of animals used was 5 to 6 mice for each treatment.

The subject of series [4] is glucose metabolism. The experiment in a line: Effect on glucose metabolism. Format: in vivo, mice. To be noted: 250 mg/kg oral, 6 h before glucose 4.0 g/kg; 0 min.
The test system of series [5] is acute hepatitis induced by D-galactosamine. The series is described as follows: Protective Effect on Acute Hepatitis associated with Mesenchymal Reaction and Discrete Lobular Necrosis (D-galactosamine). In kind it is in vivo, rat (SD strain). To be noted: 100 mg/kg oral, 6 h before D-galactosamine 600 mg/kg i.p. (+ 300 mg/kg). As for the experimental part:
D-Galactosamine is a compound which induces a discrete lobular necrosis associated with mesenchymal reaction similar to the change observed in human viral hepatitis, so that it is frequently used in producing a model for viral hepatitis.
The compound of this invention or anethol trithion was administered orally to the male rat (SD strain) at the dose of 100 mg/kg. Six hours after it, D-galactosamine was intraperitoneally administered at the dose of 600 mg/kg. Four hours after it, an additional 300 mg/kg was administered intraperitoneally. Eight hours after it, the animals were sacrificed to collect the blood samples. P-GPT activity and triglyceride in the liver were measured to evaluate the effect of the compound of this invention.

“Also recorded” adds a separate entry of the source. Where only a bound is given, the exact number is not on record here.

As to `CCOC(=O)C(C(=O)OC(C)C)=C1SCC(O)S1` (stereo not drawn) [Compound 4, Ethyl isopropyl 4-hydroxy-1,3-dithiolan-2-ylidene malonate], in series [1] (50 mg/kg oral), the Total lipid came to 87.6 ± 7.2 mg/g-liver, the Triglyceride came to 40.6 ± 8.2 mg/g-liver and the “Degree of fatty liver (histopathological examination)” value is reported as “+ + + ++; also recorded: ± ± + ± ± ± +”. Moreover, in series [1] (250 mg/kg oral), the Total lipid is given as 70.3 ± 7.7 mg/g-liver, the Triglyceride is on record as 25.3 ± 4.2 mg/g-liver and the “Degree of fatty liver (histopathological examination)” value is on record as “± ± ± - - - ±”.
Usually LD50 stands for the dose at which mortality reaches 50%. Read a low LD50 as greater toxicity. Regarding `CC(C)OC(=O)C(C(=O)OC(C)C)=C1SCC(O)S1` (stereo not drawn) [Compound 2, Diisopropyl 4-hydroxy-1,3-dithiolan-2-ylidene malonate], the Total lipid in series [1] (50 mg/kg oral) stood at 82.3 ± 15.1 mg/g-liver; in series [1] (250 mg/kg oral), 68.3 ± 10.3 mg/g-liver. The Triglyceride in series [1] (50 mg/kg oral) is given as 38.6 ± 8.5 mg/g-liver; in series [1] (250 mg/kg oral), 21.6 ± 7.3 mg/g-liver. The “Degree of fatty liver (histopathological examination)” value was “± ± + ± ± + ±” in series [1] (50 mg/kg oral) and “- - ± ± ± ± -” in series [1] (250 mg/kg oral). Further, the “BSP (residual quantity)” value in series [2] was 17.1 ± 3.8. The compound further returned an LD50 in the series “acute oral toxicity” greater than 6590 mg/kg. For the same compound, the “Blood Sugar” value worked out at 247 ± 20.2 mg/dL in the series on glucose metabolism [3] (30 min); 212 ± 13.1 mg/dL in the series on glucose metabolism [3] (60 min); 177 ± 15.5 mg/dL with glucose metabolism [3] (90 min); 130 ± 10.8 mg/dL in the series on glucose metabolism [3] (120 min); 136 ± 12.3 mg/dL with glucose metabolism [4]. The compound further displayed a Triglyceride in liver in series [5] of 7.0 ± 0.82 mg/g. In series [5], this compound showed a p-GPT of 73 ± 13 Karmen unit.

These data come from patent publication US4080466A, “Pharmaceutical compositions containing 4-hydroxyl-1,3-dithiolan-2-ylidene malonates” (Nihon Nohyaku Co., Ltd., priority 1976, dated 1978).
